Consider one compound from US5607967A, “Treatment of alzheimer's disease with 5-(tetradecyloxy)-2-furan carboxylic acid” (Merck & Co., Inc., priority 1994, dated 1997).

For assay [1], the system named is Dopamine D2 receptor antagonist (Haloperidol) induced catalepsy. Description: Haloperidol induced catalepsy (Bar method). Conditions: for Catalepsy Duration: TOFA 0.4 mg/kg S.C. pretreatment. The assay is classed as in vivo, rat.
A further assay concerns PC12 cells. Description: Neurite differentiation of PC12 cells. The class given is cell-based. As to conditions: for % Cells Bearing Neurites / Average length of neurites: 4 days, mean ±SEM. As for the experimental part:
To further study the influence of TOFA on the nervous system, we tested the effect of TOFA on the differentiation of PC12 cells. PC12 cells were plated at a density of approximately 100-200/mm^2 on collagen coated plates or dishes in RPMI medium supplemented with 10% horse serum, 5% fetal calf serum, […] streptomycin, 50 U/mL penicillin in a water saturated atmosphere of 95% air and 5% CO2, at 37° C. overnight. Medium was replaced with fresh RPMI containing 1.5% serum, 100 ng/mL NGF and the indicated concentration of TOFA or an equivalent volume of vehicle (DMSO) giving a final concentration of 0.1% DMSO.
At different time points during the treatment, cells were photographed or fixed with 10% formalin. Morphology was examined after four days of treatment with TOFA or vehicle (DMSO). The number of cells beating neurites and average length of neurites were determined with the aid of the Bioquant imaging system. […] However, as depicted in Table 6 below, NGF alone induced a 15% increase in the number of cells bearing neurites and these outgrowths reached a mean length of 20 μm. Treatment with NGF and TOFA increased the percentage of cells beating neurites to 78%. Maximal neurite generation is observed at a concentration of 10 μM TOFA.
Cells were treated with vehicle (0.1% DMSO) or various concentrations of TOFA in the presence of 100 ng/mL NGF for 4 days, and then fixed with 10% formalin. At least eighty cells from eight wells were analyzed in each group. The results are shown as the mean ±SEM. ^a p<0.01, versus vehicle by Dunnetts test.

Molecules are shown by their SMILES. “And” between values parts separate entries of the source, which are not always exact repeats. Equal entries are not always repeated. “Also recorded” adds a separate entry of the source.

Turning to `CCCCCCCCCCCCCCOc1ccc(C(=O)O)o1` [TOFA, 5-(tetradecyloxy)-2-furan carboxylic acid], the “Catalepsy Duration” value in assay [1] (24 h later 0.1 mg/kg Haloperidol) turned out to be 28.9 ± 4.5 s; in assay [1] (no challenge), 0 s. Also, the “Effect of TOFA pretreatment on Haloperidol-induced catalepsy” value in assay [1] (TOFA 0.4 mg/kg S.C., 24 h before 0.1 mg/kg Haloperidol) is on record as “did not significantly affect; also recorded: unaffected”. Also, the “% Cells Bearing Neurites” value with PC12 cells (0.1 μM TOFA with 100 ng/mL NGF) is 14.27 ± 3.51%; in the assay with PC12 cells (1.0 μM TOFA with 100 ng/mL NGF) it was 24.07 ± 3.06%; in the assay with PC12 cells (10 μM TOFA with 100 ng/mL NGF), 78% and 78.39 ± 4.89%. The “Average length of neurites” value worked out at 23.67 ± 2.86 μm in the assay with PC12 cells (0.1 μM TOFA with 100 ng/mL NGF), 28.63 ± 3.92 μm in the assay with PC12 cells (1.0 μM TOFA with 100 ng/mL NGF) and 32.43 ± 2.38 μm in the assay on PC12 cells (10 μM TOFA with 100 ng/mL NGF). In addition, the “Concentration of maximal neurite generation” value in the assay with PC12 cells (with 100 ng/mL NGF) was 10 µM.
